From PubChem BioAssay (NCI)
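Where inhibition never reached the appropriate level, the endpoint shown equals the highest concentration tested. Otherwise, values were interpolated linearly from a five-concentration, 48-hour dose response in 96-well plates. Here, GI50 denotes the concentration required for 50% inhibition of growth. Definition used: TGI = concentration required for complete inhibition of growth.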

Columns and labels:
Test in all cases: NCI-60 cell line screen, 48 h
[1] = system: 786-0 renal
[2] = system: HOP-62 NSCLC
[3] = system: NCI-H226 lung
[4] = system: SK-MEL-2 melanoma
[5] = system: SN12C renal
[6] = system: SNB-75 CNS
[7] = system: UO-31 renal
[8] = system: DU-145 prostate
[9] = system: MDA-MB-435
[10] = system: RPMI-8226 leukemia

| SMILES | TGI [1] [µM] | TGI [2] [µM] | TGI [3] [µM] | TGI [4] [µM] | TGI [5] [µM] | TGI [6] [µM] | TGI [7] [µM] | GI50 [1] [µM] | GI50 [8] [µM] | TGI [8] [nM] | GI50 [2] [µM] | GI50 [9] [nM] | TGI [9] [µM] | GI50 [10] [µM] | TGI [10] [µM] | GI50 [4] [µM] | GI50 [5] [µM] | GI50 [6] [µM] | GI50 [7] [µM] | GI50 [3] [nM] |
| --- | --- | --- | --- | --- | --- | --- | --- | --- | --- | --- | --- | --- | --- | --- | --- | --- | --- | --- | --- | --- |
| COc1nc2c(c(O)c(C)c(=O)n2OC2OCC(OC(C)=O)C(OC(C)=O)C2OC(C)=O)c(=O)n1C (centres undefined) | > 100 | > 100 | > 100 | > 100 | > 100 | > 100 | > 100 |  |  |  |  |  |  |  |  |  |  |  |  |  |
| COc1ccc(OC)c(/C=C/c2nc(=S)n(-c3ccc(Cl)cc3)[nH]2)c1 | > 100 | > 100 |  | > 100 | > 100 | > 100 |  | 7.17 | 19.1 | > 100000 | 6.48 | 2830 | > 100 | 5.22 | > 100 | 4.05 | 6.07 | 2.85 |  |  |
| O=c1cc(O)cc2n1CCC2 | > 100 | > 100 | > 100 | > 100 | > 100 | > 100 | > 100 |  |  |  |  |  |  |  | > 100 |  |  |  |  |  |
| COC(=O)/C=C(/C(=O)OC)C1(C)c2cc(C(=O)OC)c(C(=O)OC)c(N)c2C(=N)N1c1ccccc1 (centres undefined) | 74.4 | > 100 | 89.9 | 81.4 | 48.4 | 81 | 47.1 |  |  |  |  |  |  |  | 57.6 |  |  |  |  |  |
| O=C(NC1C(=O)NNC1c1cccc([N+](=O)[O-])c1)c1ccccc1 (centres undefined) | > 100 | > 100 | > 100 | > 100 | > 100 | > 100 | > 100 |  |  |  |  |  |  |  | > 100 |  |  |  |  |  |
| COC(=O)C1C(=O)O[C@@H](c2ccc3c(c2)OCO3)C1C(=O)OC (mixture of isomers) | > 100 | > 100 | > 100 |  | > 100 | > 100 | > 100 |  |  |  |  |  |  |  | > 100 |  |  |  |  |  |
| CCN(CC)CCCNc1ccc(C)c2sc3ccccc3c(=O)c12 | 2.18 | 2.55 |  | 3.45 | 7.51 | 26.1 | 2.07 | 0.822 | 1.04 | 2440 | 1.14 | 210 | 0.451 | 0.33 | 1.34 | 1.66 | 1.09 | 5.2 | 0.514 |  |
| CC(=O)O[C@H]1C(=O)[C@@]2(C)C([C@H](OC(=O)c3ccccc3)[C@]3(O)C[C@H](OC(=O)[C@H](O)[C@@H](NC(=O)c4ccccc4)c4ccccc4)C(C)=C1C3(C)C)[C@]1(OC(C)=O)CO[C@@H]1C[C@@H]2O (some centres undefined) | > 50 | > 50 | > 50 | > 50 | > 50 | 0.0186 | > 50 | 0.0465 | 0.00673 | 27.2 |  |  |  | < 0.005 | > 50 | 0.0149 | 0.0142 | < 0.005 | 1.41 | 18.9 |
| CCOC(=O)c1nc(C)oc1C(F)(F)F | > 100 | > 100 | > 100 | > 100 | > 100 | > 100 | > 100 |  |  |  |  |  |  |  |  |  |  |  |  |  |
| Cc1ccc2c(c1)CN1c3ccc(C)cc3CN2C1c1ccccc1O | > 100 | > 100 | > 100 | > 100 | > 100 | 9.08 | 88.2 |  |  |  |  |  |  |  | > 100 |  |  |  |  |  |
| O=[N+]([O-])c1ccc(Cl)c2c([N+](=O)[O-])cccc12 | > 10 | > 10 |  | > 10 | > 10 | > 10 |  |  |  |  |  |  | 9.61 |  | > 10 |  |  |  |  |  |
| CCCCCCCCCCCC[N+]1(CCCCCCCCCCCC)CCCC(C)C1 (centres undefined) | 1.66 |  |  |  |  | 1.63 |  | 0.412 | 0.57 | 1870 |  | 277 | 1.09 |  |  |  |  | 0.349 |  |  |
| C[C@]12Cc3cn[nH]c3C(=O)C1CC[C@@H]1C2CC[C@@]2(C)C1CC[C@@H]2O (some centres undefined) | > 100 | > 100 | > 100 | > 100 | > 100 | > 100 | > 100 |  |  |  |  |  |  |  | > 100 |  |  |  |  |  |
| N#CC(C(=O)C(=O)Nc1c(Cl)cccc1Cl)c1ccccc1 (centres undefined) | > 100 | > 100 | > 100 | > 100 | > 100 | > 100 | > 100 | > 100 |  |  | > 100 |  |  | > 100 | > 100 | > 100 | > 100 | > 100 | > 100 | > 100000 |
| O=C(NC12CC3CCC1CC(C3)C2)[C@@H]1CCCN1C(=O)OCc1ccccc1 (some centres undefined) | > 100 | > 100 | > 100 | > 100 | > 100 | 97.2 | > 100 |  |  |  |  |  |  |  | > 100 |  |  |  |  |  |
| N#C/C(=C\c1cc(OCc2ccccc2)c(OCc2ccccc2)cn1)C(N)=O | > 100 | > 100 | > 100 | > 100 | > 100 | > 100 | > 100 |  |  |  |  |  |  |  | > 100 |  |  |  |  |  |

| SMILES | TGI [1] [µM] | TGI [2] [µM] | TGI [3] [µM] | TGI [4] [µM] | TGI [5] [µM] | TGI [6] [µM] | TGI [7] [µM] | GI50 [1] [µM] | GI50 [8] [µM] | TGI [8] [nM] | GI50 [2] [µM] | GI50 [9] [nM] | TGI [9] [µM] | GI50 [10] [µM] | TGI [10] [µM] | GI50 [4] [µM] | GI50 [5] [µM] | GI50 [6] [µM] | GI50 [7] [µM] | GI50 [3] [nM] |
| --- | --- | --- | --- | --- | --- | --- | --- | --- | --- | --- | --- | --- | --- | --- | --- | --- | --- | --- | --- | --- |
| O=[N+]([O-])c1ccccc1C1SCc2nc3ccccc3n21 (centres undefined) | > 100 | > 100 |  | > 100 | > 100 |  | > 100 |  |  |  |  |  |  |  |  |  |  |  |  |  |
| Cc1ccc(S(=O)(=O)OCC/C(=C\[Si](C)(C)C)c2ccccc2)cc1 | > 100 | > 100 | > 100 | > 100 | > 100 | > 100 | > 100 |  |  |  |  |  |  |  | > 100 |  |  |  |  |  |
| NNC(=O)C(=O)N/N=C1/CCCC1C(=O)CCC(=O)Nc1ccc(Cl)cc1 (centres undefined) | > 100 | > 100 | > 100 | > 100 | > 100 | > 100 | > 100 |  |  |  |  |  |  |  | > 100 |  |  |  |  |  |
| COc1cc(CNc2nc3cc(N)cc(N)c3nc2-c2ccccc2)cc(OC)c1 | 44.2 | 31.3 |  | 41 | > 100 |  | > 100 | 12.7 | 29.7 | > 100000 | 13.5 |  |  |  | 6.22 | 7.77 | 11.4 |  | 4.05 |  |
| Cc1c(C(=N)C(C#N)C#N)c(=N)oc2c1ccc1ccccc12 | > 100 | 77.6 |  | 56.4 | > 100 | 48.9 | > 100 | 29.1 | 25.3 | > 100000 | 21.7 | 22200 | > 100 | 20.8 | 78.3 | 18 | 22 | 13.6 | 8.23 |  |
| OCc1cc2c(cn1)[nH]c1ccc(NCc3ccccc3)cc12 | 58.4 | > 100 | 54.4 | > 100 | > 100 | 69.7 | 82.7 |  |  |  |  |  |  |  | 35.8 |  |  |  |  |  |
| CC1=N/C(=C\c2ccc(/C=C3/N=C(C)OC3=O)cc2)C(=O)O1 | > 100 | > 100 |  | > 100 | > 100 | > 100 | > 100 |  |  |  |  |  |  |  | > 100 |  |  |  |  |  |
| O=c1/c(=C/c2ccccc2[N+](=O)[O-])sc2nnc(-c3cccnc3)n12 | > 100 | > 100 | > 100 | > 100 | > 100 | > 100 | > 100 |  |  |  |  |  |  |  | > 100 |  |  |  |  |  |
| O=C(NCCNCCO)c1ccc2c(c1)oc1cc3ccccc3c(=O)n12 | > 50 | > 50 |  | 44.7 | > 50 | 44.4 | > 50 | > 50 | 41.2 | > 50000 | > 50 | > 50000 | > 50 | 33.8 | > 50 | 12.8 | 29.1 | 15 | 16.6 |  |
| COc1cc(Nc2cnc3ccc(C(F)(F)F)cc3n2)cc(OC)c1OC | > 100 | > 100 | > 100 | > 100 | > 100 |  | > 100 |  |  |  |  |  |  |  | > 100 |  |  |  |  |  |
| COC(=O)CCC(NC(=S)N/N=C/c1cccs1)C(=O)OC (centres undefined) | > 100 | > 100 | > 100 | > 100 | > 100 | > 100 | > 100 |  |  |  |  |  |  |  |  |  |  |  |  |  |
| O=C1NC(=O)c2c1n(Cc1ccccc1)c(=O)n2Cc1ccccc1 | > 100 | > 100 | > 100 | > 100 | > 100 | > 100 | > 100 |  |  |  |  |  |  |  | > 100 |  |  |  |  |  |
| CCc1ccccc1NC(=O)c1cccc([N+](=O)[O-])c1O | > 100 | 58 | 88.7 |  | > 100 | 71.8 | 71.6 |  |  |  |  |  |  |  | > 100 |  |  |  |  |  |
| Cc1nc(N)nc(CCC(=O)Nc2cccc(C(F)(F)F)c2)c1-c1ccc(Cl)cc1 | > 100 | > 100 | > 100 | > 100 | > 100 | > 100 | > 100 |  |  |  |  |  |  |  | > 100 |  |  |  |  |  |
| O=C1NC2=C(CCCCC/C2=N\O)C12CCCCCC2 | > 100 | > 100 |  | > 100 | > 100 | > 100 | > 100 |  |  |  |  |  |  |  | > 100 |  |  |  |  |  |
| COc1cc2oc(-c3ccc(O)cc3)cc(=O)c2c(O)c1C1OC(CO)C(O)C(O)C1O (centres undefined) | > 100 | > 100 | > 100 | > 100 | > 100 | > 100 | > 100 |  |  |  |  |  |  |  | > 100 |  |  |  |  |  |
